The values below come from patent US8071654B2, “Inhibitors of thromboxane formation and action” (priority 2000, dated 2011).

In data set [1] the target is T1, TP receptor (Homo sapiens, UniProt P21731).
T1 construct: endogenous in cells; host or cells: washed human platelets
T1 sequence (P21731 1-343): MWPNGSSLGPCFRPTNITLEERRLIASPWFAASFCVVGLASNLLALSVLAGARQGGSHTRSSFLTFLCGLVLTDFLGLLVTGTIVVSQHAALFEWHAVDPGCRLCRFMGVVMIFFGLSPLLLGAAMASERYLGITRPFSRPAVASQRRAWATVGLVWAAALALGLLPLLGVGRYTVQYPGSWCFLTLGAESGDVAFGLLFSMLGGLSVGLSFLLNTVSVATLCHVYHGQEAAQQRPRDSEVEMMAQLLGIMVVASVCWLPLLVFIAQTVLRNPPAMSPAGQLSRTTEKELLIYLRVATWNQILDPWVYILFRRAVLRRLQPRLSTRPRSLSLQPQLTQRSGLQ
Description: platelet aggregation evoked by I-BOP. The format is cell-based. The conditions noted are these: 2 ng/0.5 ml, data not shown. On the procedure:
Venous blood was obtained from healthy human subjects who had not taken NSAID's for at least two weeks. Blood was drawn into plastic syringes containing ACD. It was immediately centrifuged at 23° at 200×g for 15 min. The platelet rich plasma was transferred into fresh plastic tubes and centrifuged at 400×g for 5 min. The supernatant was discarded and the platelet sediment was resuspended in fresh medium containing NaCl (137 mM), KCl (1 mM), NaH2PO4, glucose (5.5 mM), HEPES (20 mM) and CaCl2 (1 mM) and allowed to stand at room temperature for 30 min. A platelet count was made, which determined the volume of platelet suspension needed to make up 350×10^6 cells for each measurement. The aliquot was diluted with medium to make 0.5 ml/assay/cuvette. […]
0.5 ml of platelet suspension was added to siliconized glass tubes (four at a time) and heated with magnetic stirring to 37° for 1 min in a platelet aggregometer (PAP-4C). […] The response was recorded for the next 5 min. […] In experiments where the conversion of tritiated PGH2 was to be monitored, the procedure described above was repeated with tritiated PGH2 instead of unlabeled PGH2. After extraction of the sample as described above, the radiolabeled compounds were analyzed by TLC. Dose response curves for varying amounts of test compounds were generated and the data expressed as % inhibition of collagen-induced platelet aggregation. […]

Data set [2] concerns the target T2, platelet TP receptor (Homo sapiens, UniProt P21731).
T2 construct: endogenous in cells; host or cells: washed human platelets
T2 sequence (P21731 1-343): T1 sequence (P21731 1-343)
Description: binding of 125I-BOP to platelets. To be noted: 10×10^6 cells/0.5 ml; read-out: IC50 for competition with 125I-BOP binding to platelets. How it is done: Washed platelets were prepared as described above, except that the platelet suspension was made up at a concentration of 10×10^6 cells/0.5 ml. The binding assay involved the addition of radioligand (30,000 cpm ^125I-BOP) to all tubes in triplicate, and either various doses of unlabeled I-BOP (10^−9-10^−7 M), PBT-3 (10^−9-10^−7 M) or U46619 (10^−9-10^−7 M) in 1 μl ethanol. Additional tubes containing excess unlabeled I-BOP were included to assess the extent of non-specific binding.

The nature of data set [3]: intra ocular pressure in rats, eye drops, TonoPen. To be noted: one drop daily to left eye, after 10 days' treatment, vs untreated right eye. The format is in vivo, Brown Norway rats. How it is done:
Brown Norway rats (300 g) were purchased from Charles River (St. Constant, Que), and housed (two/cage) in an animal facility with free access to food and water. A light cycle of 12 h on and 12 h off was maintained. Animals were allowed to adjust for one week prior to treatment during which period they were handled daily to get them familiarized with the procedures.
Prior to treatment with test drugs, the rats' intra ocular pressures (IOP) were measured to establish baseline readings. One drop of Didocaine (0.5%, Dioptic Labs, Markham, Ont) was administered to each eye, and the pressure in each eye was measured with a TonoPen (Mentor XL, Innova Medical Ophthalmics, Toronto). The treatment protocol consisted of daily administration of one drop of one of the following substances to the left eye, the right eye being left untreated to act as a control. […] Following this, the animals were left without treatment for 2 weeks (wash-out), and then treatment was started again, the same animals receiving the same drugs. Results are calculated from at least 30 readings/test animal and presented as the mean±SEM (left eye vs right eye), with the exclusion of readings >50 and <10 which were considered spurious and artifactual readings.

Data set [4] relates to human platelets. Description: collagen-evoked aggregation of washed human platelets. Type of data set: cell-based. To be noted: single dose 1 μg added 2 min prior to collagen (2 μg); 350×10^6 washed human platelets in 0.5 ml. How it is done:
Venous blood was obtained from healthy human subjects who had not taken NSAID's for at least two weeks. Blood was drawn into plastic syringes containing ACD. […] The platelet rich plasma was transferred into fresh plastic tubes and centrifuged at 400×g for 5 min. […] A platelet count was made, which determined the volume of platelet suspension needed to make up 350×10^6 cells for each measurement. The aliquot was diluted with medium to make 0.5 ml/assay/cuvette. Appropriate calibration of the aggregometer (PAP-4C) for 0% and 100% transmission was carried out through the use of a sample of platelet suspension and cell-free medium (37).
(§1) 0.5 ml of platelet suspension was added to siliconized glass tubes (four at a time) and heated with magnetic stirring to 37° for 1 min in a platelet aggregometer (PAP-4C). Either vehicle alone (ethanol, 1 μl) or hepoxilin analog was then added, followed two min later by agonist (collagen: 2 μg; PGH2: 100 ng/0.5 ml; U46619: 10 ng/0.5 ml or I-BOP: 2 ng/0.5 ml). The response was recorded for the next 5 min. In experiments where analysis of TxB2 and HHT were to be made by HPLC, the platelet suspension at the end of the experiment was diluted with ethyl acetate, 100 ng of prostaglandin B1 was added as internal standard, and the mixture was acidified to pH 3 with 0.1 N HCl. After centrifugation, the organic layer was separated, washed twice with water to neutrality, and evaporated to dryness. Half of the sample was taken and was resuspended in 1 ml ethyl acetate containing 20 μg ADAM reagent, and was left in the dark for 2 h (38). The solvent was then evaporated and the residue was acetylated with a solution of pyridine/acetic anhydride (3/1, v/v) during 16 h at 23°. The reagents were evaporated to dryness and the residue was resuspended in acetonitrile/water for HPLC analysis. In experiments where the conversion of tritiated PGH2 was to be monitored, the procedure described above was repeated with tritiated PGH2 instead of unlabeled PGH2. After extraction of the sample as described above, the radiolabeled compounds were analyzed by TLC. Dose response curves for varying amounts of test compounds were generated and the data expressed as % inhibition of collagen-induced platelet aggregation. Each point was investigated 5 times and statistical analysis of the data was carried out using Macintosh Statview statistical software.

In data set [5] the target is T1, TP receptor. The data set is described as follows: platelet aggregation evoked by the TxA2 mimic U46619. The format is cell-based. To be noted: aspirin 20 μg. How it is done: Venous blood was obtained from healthy human subjects who had not taken NSAID's for at least two weeks. Blood was drawn into plastic syringes containing ACD. It was immediately centrifuged at 23° at 200×g for 15 min. The platelet rich plasma was transferred into fresh plastic tubes and centrifuged at 400×g for 5 min. The supernatant was discarded and the platelet sediment was resuspended in fresh medium containing NaCl (137 mM), KCl (1 mM), NaH2PO4, glucose (5.5 mM), HEPES (20 mM) and CaCl2 (1 mM) and allowed to stand at room temperature for 30 min. A platelet count was made, which determined the volume of platelet suspension needed to make up 350×10^6 cells for each measurement. The aliquot was diluted with medium to make 0.5 ml/assay/cuvette. Appropriate calibration of the aggregometer (PAP-4C) for 0% and 100% transmission was carried out through the use of a sample of platelet suspension and cell-free medium (37).
as §1

For data set [6] the following is noted: cited from earlier work.

For `O=C(O)CCC/C=C\C[C@@H]1[C@@H](/C=C/[C@H](O)COc2ccc(I)cc2)[C@H]2CC[C@@H]1O2` (relative stereo) [I-BOP, 5-heptenoic acid, 7-[3-[3-hydroxy-4-(4-iodophenoxy)-1-butenyl]-7-oxabicyclo [2.2.1]hept-2-yl]-,[15-[1α, 2α(Z), 3β(1E,3S*), 4α]], reference compound], the “aggregation caused by the agonist” value in data set [1] is 70%. Further, in data set [2], the IC50 amounted to 0.5 nM.
Take `CC(C)(C)NC[C@H](O)COc1cccc2c1CCCC2=O` [O-bunolol, reference compound]: the “effect on intra ocular pressure (IOP)” value in data set [3] (0.5%) is recorded as “non-significant rise”.
Take `CCCCC/C=C\CC1CC1/C=C/[C@@H](O)C/C=C\CCCC(=O)OC` (stereo partly drawn) [PBT-1, 8(S)-hydroxy-11,12-cyclopropyl-eicosa-5Z,9E,14Z-trienoic acid methyl ester]: in data set [4], the “inhibition of collagen-evoked aggregation” value is on record as “inhibited the collagen effect”.
Still for that read-out and setting: as for `CCCCC/C=C\CC1CC1/C=C/C(O)C/C=C\CCCC(=O)OC` [PBT-2, 8(R)-hydroxy-11,12-cyclopropyl-eicosa-5Z,9E,14Z-trienoic acid methyl ester], the entry is “inhibited the collagen effect”; as for `CCCCC/C=C\CC1CC1[C@H](O)/C=C\C/C=C\CCCC(=O)OC` (stereo partly drawn) [PBT-4, 10(R)-hydroxy-11,12-cyclopropyl-eicosa-5Z,8Z,14Z-trienoic acid methyl ester], “inhibited the collagen effect”.
With `CCCCC/C=C\CC1CC1[C@@H](O)/C=C\C/C=C\CCCC(=O)N[C@H]1C(O)O[C@H](CO)[C@H](O)[C@@H]1O` (stereo partly drawn) [PBT-30, 10(S)-hydroxy-11,12-cyclopropyl-eicosa-5Z, 8Z, 14Z-trienoic acid galactosamide], in data set [3] (0.005%), the “effect on intra ocular pressure (IOP)” value is given as “tended to reduce IOP but the effect did not reach statistical significance”.
Regarding `CCCCCC(O)C=CC1C2CC(CO2)C1CC=CCCCC(=O)O` (stereo not drawn) [U46619, 5-heptenoic acid, 7-[6-(3-hydroxy-1-octenyl)-2-oxabicyclo-[2,2,1]-hept-5yl]-[1R-[1α,4α,5β(z), 6α(1E,3S*)]-9,11-dideoxy-9α,11α-methanoepoxyprostaglandin F2α, reference compound], the IC50 in data set [2] came out at 4.1 nM.
Consider `CC(=O)Oc1ccccc1C(=O)O` [aspirin, reference compound], for which the “effect on U46619-evoked aggregation” value in data set [5] was “did not block”.
As for `CC(C)OC(=O)CCC/C=C\C[C@@H]1[C@@H](CC[C@@H](O)CCc2ccccc2)[C@H](O)C[C@@H]1O` [latanoprost, reference compound], the “effect on intra ocular pressure (IOP)” value in data set [3] (0.005%) is recorded as “significant reduction in IOP”.
For the compound `CCCCC[C@H](O)/C=C/[C@H]1O[C@H]2C[C@H](O2)[C@@H]1C/C=C\CCCC(=O)O` [thromboxane A2 (TxA2), thromboxane A2], the “half life in the body” value in data set [6] was 30 s.

A word on the IC50: it is the concentration at which inhibition is half-maximal.
